Holding throughout (experiment): KinomeScan kinase profiling
Common to all, as to assay type: binding

Test [1] deals with T1, WEE1 (Homo sapiens, UniProt P30291).
T1 construct: purchased Ambit Biosciences Corp (KinomeScan); host or cells: E. coli host derived from the BL21 strain (T7 phage lysate)
Put shortly:
(§1)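 Kinases were expressed as T7 phage fusions in a BL21-derived E. coli host and the cleared lysates were used. Ligand beads were blocked with biotin and buffer (1% BSA, 0.05% Tween 20, 1 mM DTT). Compounds came from 40× DMSO stocks, and phage in the eluates was titred by qPCR.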

Test [2] concerns the target T2, KIT (V559D, T670I) (Homo sapiens, UniProt P10721, T670I/V559D).
T2 construct: host or cells: T7 phage in E. coli host derived from BL21
Put shortly: as §1

The target in test [3] is T3, CLK4 (Homo sapiens, UniProt Q9HAZ1).
T3 construct: host or cells: T7 phage in E. coli (BL21-derived)
T3 sequence (Q9HAZ1 whole entry): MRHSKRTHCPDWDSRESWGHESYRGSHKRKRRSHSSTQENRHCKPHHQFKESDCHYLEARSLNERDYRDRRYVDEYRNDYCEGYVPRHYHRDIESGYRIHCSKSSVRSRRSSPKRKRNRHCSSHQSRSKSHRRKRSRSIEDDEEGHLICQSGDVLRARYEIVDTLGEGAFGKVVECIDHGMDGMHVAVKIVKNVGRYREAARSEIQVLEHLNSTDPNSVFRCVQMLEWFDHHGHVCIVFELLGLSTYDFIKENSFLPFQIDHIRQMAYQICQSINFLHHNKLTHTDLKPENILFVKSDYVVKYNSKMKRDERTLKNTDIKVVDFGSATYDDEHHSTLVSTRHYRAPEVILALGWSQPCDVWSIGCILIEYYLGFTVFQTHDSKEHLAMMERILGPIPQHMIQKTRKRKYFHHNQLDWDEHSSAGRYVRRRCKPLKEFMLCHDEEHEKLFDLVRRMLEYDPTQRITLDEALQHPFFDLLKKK
Put shortly:
as §1

In test [4] the target is T4, MYO3B (Homo sapiens, UniProt Q8WXR4).
T4 construct: host or cells: T7 phage in E. coli host derived from BL21
T4 sequence (Q8WXR4 whole entry): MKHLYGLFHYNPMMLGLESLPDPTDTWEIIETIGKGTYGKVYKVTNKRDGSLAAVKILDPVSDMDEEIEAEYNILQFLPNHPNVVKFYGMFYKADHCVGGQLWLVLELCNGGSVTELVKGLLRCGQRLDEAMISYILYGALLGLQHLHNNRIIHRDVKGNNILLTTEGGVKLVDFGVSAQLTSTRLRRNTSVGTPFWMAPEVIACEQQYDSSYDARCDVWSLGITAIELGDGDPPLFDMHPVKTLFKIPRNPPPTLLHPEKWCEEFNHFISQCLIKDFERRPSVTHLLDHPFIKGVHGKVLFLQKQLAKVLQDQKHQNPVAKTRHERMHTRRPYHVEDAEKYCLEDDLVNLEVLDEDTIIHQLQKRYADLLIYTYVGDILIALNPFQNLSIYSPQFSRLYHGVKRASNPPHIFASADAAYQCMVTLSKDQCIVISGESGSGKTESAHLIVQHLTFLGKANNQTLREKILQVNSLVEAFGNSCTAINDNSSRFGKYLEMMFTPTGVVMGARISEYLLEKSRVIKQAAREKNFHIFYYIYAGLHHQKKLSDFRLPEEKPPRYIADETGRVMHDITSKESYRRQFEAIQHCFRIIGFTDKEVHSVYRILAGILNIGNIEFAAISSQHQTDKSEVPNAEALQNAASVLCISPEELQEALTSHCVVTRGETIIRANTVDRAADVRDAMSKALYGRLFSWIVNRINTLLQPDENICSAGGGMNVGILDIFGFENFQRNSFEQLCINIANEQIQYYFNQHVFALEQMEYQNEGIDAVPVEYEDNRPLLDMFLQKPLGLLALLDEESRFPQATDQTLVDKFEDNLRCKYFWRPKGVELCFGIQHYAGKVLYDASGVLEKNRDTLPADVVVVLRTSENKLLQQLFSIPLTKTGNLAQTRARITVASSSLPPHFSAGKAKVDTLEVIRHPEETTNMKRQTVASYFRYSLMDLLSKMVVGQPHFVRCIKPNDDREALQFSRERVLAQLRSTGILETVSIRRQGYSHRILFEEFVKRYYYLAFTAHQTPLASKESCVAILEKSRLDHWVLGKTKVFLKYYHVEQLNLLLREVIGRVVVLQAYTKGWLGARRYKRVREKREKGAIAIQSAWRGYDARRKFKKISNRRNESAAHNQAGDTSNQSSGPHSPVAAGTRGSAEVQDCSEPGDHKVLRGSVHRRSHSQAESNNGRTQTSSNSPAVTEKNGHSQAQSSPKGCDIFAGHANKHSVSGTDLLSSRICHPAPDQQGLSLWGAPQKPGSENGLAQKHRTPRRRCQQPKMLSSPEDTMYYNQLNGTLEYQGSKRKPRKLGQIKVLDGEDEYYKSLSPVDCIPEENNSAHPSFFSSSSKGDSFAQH
Put shortly: as §1

For test [5], the target named is T5, PRKX (Homo sapiens, UniProt P51817).
T5 construct: host or cells: E. coli host derived from BL21, T7 phage lysate
Put shortly:
as §1

Test [6] has as its target T6, CSNK1A1L (Homo sapiens, UniProt Q8N752).
T6 construct: host or cells: T7 phage in E. coli (BL21-derived)
The method in brief:
as §1

Test [7] concerns the target T7, CIT (Homo sapiens, UniProt O14578).
T7 construct: host or cells: T7 phage in E. coli (BL21-derived)
The method in brief: as §1

In test [8] the target is T8, JAK2 (JH1domain-catalytic) (Homo sapiens, UniProt O60674).
T8 construct: JAK2 (JH1domain-catalytic); host or cells: T7 phage in E. coli host derived from BL21
Put shortly:
as §1

Test [9] addresses T9, MYO3A (Homo sapiens, UniProt Q8NEV4).
T9 construct: host or cells: T7 phage in E. coli host derived from BL21
Put shortly:
as §1

Test [10] has as its target T10, EPHB2 (Homo sapiens, UniProt P29323).
T10 construct: host or cells: E. coli host derived from BL21, T7 phage lysate
Put shortly: as §1

Test [11] addresses T11, EGFR (S752-1759del) (Homo sapiens, UniProt P00533, DEL752-759).
T11 construct: host or cells: E. coli host derived from BL21, T7 phage lysate
Put shortly:
as §1

For test [12], the target named is T12, PFTAIRE2 (Homo sapiens, UniProt Q96Q40).
T12 construct: host or cells: E. coli host derived from the BL21 strain, infected with T7 phage
Put shortly:
as §1

Test [13] concerns the target T13, RIPK2 (Homo sapiens, UniProt O43353).
T13 construct: host or cells: E. coli host derived from BL21, T7 phage lysate
Put shortly:
as §1

Test [14] concerns the target T14, AURKA (Homo sapiens, UniProt O14965).
T14 construct: purchased Ambit Biosciences Corp (KinomeScan); host or cells: E. coli host derived from the BL21 strain, T7 phage
The method in brief: as §1

Test [15] has as its target T15, EGFR (L747-E749del, A750P) (Homo sapiens, UniProt P00533, A750P/DEL747-749).
T15 construct: purchased Ambit Biosciences Corp (KinomeScan); host or cells: T7 phage in E. coli host derived from BL21
Put shortly: as §1

The target in test [16] is T16, ERBB2 (Homo sapiens, UniProt P04626).
T16 construct: host or cells: E. coli host derived from BL21, T7 phage lysate
The method in brief: as §1

In test [17] the target is T17, STK35 (Homo sapiens, UniProt Q8TDR2).
T17 construct: host or cells: E. coli host derived from the BL21 strain, T7 phage lysate
The method in brief:
as §1

In test [18] the target is T18, IKK-epsilon (Homo sapiens, UniProt Q14164).
T18 construct: host or cells: T7 phage in E. coli host derived from BL21
The method in brief: as §1

The target of test [19] is T19, HIPK1 (Homo sapiens, UniProt Q86Z02).
T19 construct: host or cells: E. coli host derived from BL21, infected with T7 phage
The method in brief:
as §1

Test [20] addresses T20, MAP4K2 (Homo sapiens, UniProt Q12851).
T20 construct: host or cells: E. coli derived from BL21, infected with T7 phage
Put shortly:
as §1

The target of test [21] is T21, EPHA5 (Homo sapiens, UniProt P54756).
T21 construct: host or cells: E. coli host derived from BL21, T7 phage lysate
T21 sequence (P54756 25-1037): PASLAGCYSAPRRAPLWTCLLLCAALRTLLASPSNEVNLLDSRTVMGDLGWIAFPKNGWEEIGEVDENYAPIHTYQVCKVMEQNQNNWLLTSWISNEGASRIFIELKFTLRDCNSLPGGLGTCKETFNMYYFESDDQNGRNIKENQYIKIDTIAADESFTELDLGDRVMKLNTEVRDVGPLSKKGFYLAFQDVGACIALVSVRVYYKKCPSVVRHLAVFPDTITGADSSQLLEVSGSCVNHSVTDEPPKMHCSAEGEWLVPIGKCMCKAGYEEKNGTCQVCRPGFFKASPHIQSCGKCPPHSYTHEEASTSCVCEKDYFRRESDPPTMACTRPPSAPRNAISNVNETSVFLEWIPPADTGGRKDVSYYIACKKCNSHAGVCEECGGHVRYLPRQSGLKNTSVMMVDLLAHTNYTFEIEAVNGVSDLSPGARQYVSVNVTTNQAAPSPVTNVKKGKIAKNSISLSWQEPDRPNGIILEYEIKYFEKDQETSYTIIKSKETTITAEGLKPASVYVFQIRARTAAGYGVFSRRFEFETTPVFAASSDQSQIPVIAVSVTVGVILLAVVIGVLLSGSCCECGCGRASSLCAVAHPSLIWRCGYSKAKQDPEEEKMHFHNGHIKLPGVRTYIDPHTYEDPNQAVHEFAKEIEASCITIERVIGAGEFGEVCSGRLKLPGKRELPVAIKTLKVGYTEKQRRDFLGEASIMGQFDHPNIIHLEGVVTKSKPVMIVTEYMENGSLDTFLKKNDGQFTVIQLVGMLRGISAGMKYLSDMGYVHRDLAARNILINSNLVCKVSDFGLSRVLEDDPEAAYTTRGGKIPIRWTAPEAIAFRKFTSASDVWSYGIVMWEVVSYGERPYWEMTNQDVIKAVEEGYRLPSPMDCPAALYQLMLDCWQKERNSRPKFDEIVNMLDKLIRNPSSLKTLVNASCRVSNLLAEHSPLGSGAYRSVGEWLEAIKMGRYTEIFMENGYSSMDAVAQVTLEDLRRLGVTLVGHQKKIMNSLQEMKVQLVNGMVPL
The method in brief:
as §1

T10 sequence (P29323 19-1055): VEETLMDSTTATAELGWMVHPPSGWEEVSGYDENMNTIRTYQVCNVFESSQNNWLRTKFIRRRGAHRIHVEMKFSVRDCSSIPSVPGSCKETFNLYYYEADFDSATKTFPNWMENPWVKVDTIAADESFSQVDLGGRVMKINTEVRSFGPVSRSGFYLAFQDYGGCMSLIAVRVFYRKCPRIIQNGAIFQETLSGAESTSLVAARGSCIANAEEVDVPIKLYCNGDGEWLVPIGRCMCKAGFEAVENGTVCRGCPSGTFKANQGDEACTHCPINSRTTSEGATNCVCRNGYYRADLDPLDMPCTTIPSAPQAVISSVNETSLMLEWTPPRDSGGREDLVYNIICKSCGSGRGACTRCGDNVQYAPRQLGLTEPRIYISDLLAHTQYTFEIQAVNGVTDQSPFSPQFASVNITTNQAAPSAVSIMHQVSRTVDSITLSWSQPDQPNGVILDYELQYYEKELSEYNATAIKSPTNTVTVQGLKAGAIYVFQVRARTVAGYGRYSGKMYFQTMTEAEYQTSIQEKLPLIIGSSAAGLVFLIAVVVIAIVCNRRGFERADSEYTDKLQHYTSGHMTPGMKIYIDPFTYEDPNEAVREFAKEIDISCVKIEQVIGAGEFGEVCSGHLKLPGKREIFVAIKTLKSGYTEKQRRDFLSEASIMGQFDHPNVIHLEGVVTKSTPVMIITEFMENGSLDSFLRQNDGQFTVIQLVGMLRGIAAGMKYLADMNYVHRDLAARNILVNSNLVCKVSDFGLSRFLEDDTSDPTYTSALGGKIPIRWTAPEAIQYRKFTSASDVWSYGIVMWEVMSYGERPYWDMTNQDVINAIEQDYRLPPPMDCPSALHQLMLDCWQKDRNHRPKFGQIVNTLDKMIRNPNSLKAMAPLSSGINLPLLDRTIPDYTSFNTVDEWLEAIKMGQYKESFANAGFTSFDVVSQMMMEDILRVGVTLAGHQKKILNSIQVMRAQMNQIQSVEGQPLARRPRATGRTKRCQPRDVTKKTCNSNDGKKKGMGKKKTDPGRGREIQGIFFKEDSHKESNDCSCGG
T14 sequence (O14965 whole entry): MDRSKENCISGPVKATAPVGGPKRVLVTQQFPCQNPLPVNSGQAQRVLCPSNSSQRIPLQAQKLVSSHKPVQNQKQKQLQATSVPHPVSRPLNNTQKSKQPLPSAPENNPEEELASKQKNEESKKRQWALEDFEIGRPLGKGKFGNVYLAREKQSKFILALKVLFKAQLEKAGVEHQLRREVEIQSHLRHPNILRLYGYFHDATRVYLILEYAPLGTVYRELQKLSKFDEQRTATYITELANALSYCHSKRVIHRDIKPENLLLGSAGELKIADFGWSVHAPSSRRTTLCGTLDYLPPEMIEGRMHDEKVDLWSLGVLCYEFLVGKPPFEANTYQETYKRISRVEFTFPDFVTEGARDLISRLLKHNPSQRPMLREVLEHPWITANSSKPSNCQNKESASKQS
T1 sequence (P30291 whole entry): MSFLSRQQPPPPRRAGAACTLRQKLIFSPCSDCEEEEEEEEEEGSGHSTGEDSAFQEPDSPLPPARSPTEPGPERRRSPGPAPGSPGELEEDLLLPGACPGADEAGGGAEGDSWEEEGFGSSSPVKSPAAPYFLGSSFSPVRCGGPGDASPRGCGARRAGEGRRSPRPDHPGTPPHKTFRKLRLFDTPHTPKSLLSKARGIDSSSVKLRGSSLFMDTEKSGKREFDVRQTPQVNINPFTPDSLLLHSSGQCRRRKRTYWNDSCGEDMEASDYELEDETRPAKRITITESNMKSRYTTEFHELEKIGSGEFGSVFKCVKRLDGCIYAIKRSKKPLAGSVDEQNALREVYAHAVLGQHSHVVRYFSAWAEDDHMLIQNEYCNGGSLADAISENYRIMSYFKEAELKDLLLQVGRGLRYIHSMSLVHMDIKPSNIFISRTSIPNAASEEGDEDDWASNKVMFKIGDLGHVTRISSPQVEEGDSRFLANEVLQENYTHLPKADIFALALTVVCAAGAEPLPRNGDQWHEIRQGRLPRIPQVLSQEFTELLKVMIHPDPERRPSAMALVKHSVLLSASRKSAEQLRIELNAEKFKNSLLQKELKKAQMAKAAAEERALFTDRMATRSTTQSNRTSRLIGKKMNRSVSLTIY

On to `C#Cc1cccc(Nc2ncnc3cc(OC)c(OCCCN4CCOCC4)cc23)c1` [NRC-2694, N-(3-ethylnylphenyl)-7-methoxy-6-[3-(4-morpholinyl)propoxy]-4-quinazolinamine], for which the “% Ctrl @ 10000 nM” value in test [1] is given as 74 % Ctrl; in test [2], 28 % Ctrl; in [3], 17 % Ctrl; in test [4], 100 % Ctrl; in [5] it was 100 % Ctrl; in test [6], 44 % Ctrl. Further, the “% Ctrl @ 10000 nM” value in test [7] worked out at 5.0 % Ctrl; in [8], 38 % Ctrl; in test [9] it was 70 % Ctrl; in [10] it was 83 % Ctrl; in [11], 0 % Ctrl; in [12], 71 % Ctrl. The “% Ctrl @ 10000 nM” value in test [13] is 2.4 % Ctrl; in test [14], 100 % Ctrl; in test [15] it was 0 % Ctrl; in test [16], 31 % Ctrl; in [17], 52 % Ctrl; in test [18], 75 % Ctrl. Moreover, the “% Ctrl @ 10000 nM” value in [19] was 70 % Ctrl; in [20], 48 % Ctrl; in test [21], 86 % Ctrl.
